Measurements as given in ChEMBL document CHEMBL1135889, “Novel 4-anilinoquinazolines with C-7 basic side chains: design and structure activity relationship of a series of potent, orally active, VEGF receptor tyrosine kinase inhibitors” (J Med Chem, 2002).
In brackets after ≈: the same amount, converted by molar mass.

What was measured:
[1] = target: Fibroblast growth factor receptor 1 (Homo sapiens, UniProt P11362)
Description: Inhibition fibroblast growth factor receptor TK kinase activity at a concentration of 2 uM

HUVEC = assay: Inhibition of basal unstimulated growth of human endothelial cell; assay type: functional, cell-based
[2] = target: Epidermal growth factor receptor (Homo sapiens, UniProt P00533); assay: Inhibition of epidermal growth factor receptor kinase activity […] of ATP
[3] = target: Vascular endothelial growth factor receptor 2 (Homo sapiens, UniProt P35968); assay: Inhibition of vascular endothelial growth factor receptor 2 kinase activity […]
[4] = target: Vascular endothelial growth factor receptor 1 (Homo sapiens, UniProt P17948); assay: Inhibition of fms-like tyrosine kinase receptor (Flt-1) kinase activity […] of ATP
[5] = target: Vascular endothelial growth factor receptor (Homo sapiens, UniProt P17948+P35916+P35968); assay: Inhibition of human endothelial cell growth stimulate by vascular endothelial growth factor
[6] = Plasma levels following administration of 100 mg/Kg perorally and concentration in plasma 24 hr after administration; assay type: ADME, cell-free; details: po, read-out: Plasma level
[7] = Plasma levels following administration of 100 mg/Kg perorally and concentration in plasma 6 hr after administration; assay type: ADME, cell-free; details: po, read-out: Plasma level
[8] = solubility was determined using free base at pH 7; assay type: physicochemical; details: buffer
[9] = Plasma levels following administration of 50 mg/Kg perorally and concentration in plasma 6 hr after administration; assay type: ADME, cell-free; details: po, read-out: Plasma level
[10] = pKa value at a pH of […].value ranges from […]-[…].; assay type: physicochemical; details: pH 7.4
physchem [11] = details: octanol/water, pH 7.4
[12] = Plasma levels following administration of 50 mg/Kg perorally and concentration in plasma 24 hr after administration; assay type: ADME, cell-free; details: po, read-out: Plasma level
physchem [13] = details: pH 7.4
Rattus norvegicus = organism: Rattus norvegicus; assay: (§1) Binding affinity to serum protein in rat; assay type: functional
Mus musculus = organism: Mus musculus; assay: (§2) Binding affinity of serum protein in mouse.; assay type: functional, organism-based
[14] = Pharmacokinetic parameter half-life in rat was reported after intravenous administration of 5 mg/Kg measured on free base; details: in vivo
[15] = target: Dual specificity mitogen-activated protein kinase kinase; MEK1/2 (Homo sapiens, UniProt P36507+Q02750); assay: Inhibition of Mitogen activated protein kinase (MEK) at ATP <Km; assay type: protein assay
[16] = target: Cyclin-dependent kinase 2 (Homo sapiens, UniProt P24941); assay: Inhibition of Cyclin-dependent kinase 2 (CDK2) at ATP concentration <Km
[17] = as §2; assay type: ADME, organism-based; details: read-out: %Bound_Plasma (converted)
[18] = Pharmacokinetic parameter half-life in dog was reported after intravenous administration of 5 mg/Kg measured on free base; details: in vivo
[19] = Bioavailability in rat after oral dose at 50 mg/kg free base; assay type: ADME, organism-based; details: in vivo
[20] = target: Insulin-like growth factor 1 receptor (Homo sapiens, UniProt P08069); assay: Inhibition of Insulin-like growth factor I receptor at ATP <Km
Angiopoietin-1 receptor = Angiopoietin-1 receptor (Homo sapiens, UniProt Q02763); assay: Inhibition of Tyrosine protein kinase TIE-2 at ATP <Km
[21] = target: Receptor tyrosine-protein kinase erbB-2 (Homo sapiens, UniProt P04626); assay: Inhibition of ERBB2 receptor kinase at ATP concentration <Km
[22] = target: Serine/threonine-protein kinase AKT (Homo sapiens, UniProt P31751+Q9Y243+P31749); assay: Inhibition of Protein kinase B (AKT) at ATP <Km; assay type: protein assay
[23] = as §1; assay type: ADME, organism-based; details: read-out: %Bound_Plasma (converted)
[24] = pKa value at a pH of […].; assay type: physicochemical; details: pH 7.4
[25] = target: T1, 3-phosphoinositide-dependent protein kinase 1 (Homo sapiens, UniProt O15530); assay: Inhibition of receptor kinase activity against PDK (phospho-inositide dependent kinase) at ATP <Km
T1 sequence (O15530 whole entry): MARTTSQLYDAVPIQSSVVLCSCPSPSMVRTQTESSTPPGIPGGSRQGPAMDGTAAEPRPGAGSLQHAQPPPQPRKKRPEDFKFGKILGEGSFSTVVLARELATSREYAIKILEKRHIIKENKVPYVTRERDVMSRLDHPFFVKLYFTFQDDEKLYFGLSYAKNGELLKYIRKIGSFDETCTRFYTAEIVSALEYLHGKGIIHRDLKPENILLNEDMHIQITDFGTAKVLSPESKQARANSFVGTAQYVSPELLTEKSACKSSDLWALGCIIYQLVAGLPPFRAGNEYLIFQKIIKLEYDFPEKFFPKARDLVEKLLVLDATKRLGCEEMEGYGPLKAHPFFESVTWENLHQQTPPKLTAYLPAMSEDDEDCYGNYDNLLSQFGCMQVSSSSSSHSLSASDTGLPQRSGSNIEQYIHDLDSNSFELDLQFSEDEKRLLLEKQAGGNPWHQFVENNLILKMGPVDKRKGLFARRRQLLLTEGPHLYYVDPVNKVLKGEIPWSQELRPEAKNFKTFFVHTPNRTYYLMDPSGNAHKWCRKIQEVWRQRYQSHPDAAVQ

[26] = Pharmacokinetic parameters in dog, and clearance value reported after oral administration of 50 mg/Kg.; assay type: ADME, organism-based, Canis lupus familiaris; details: in vivo
[27] = Plasma levels following administration of 50 mg/Kg perorally and concentration of compound in plasma 24 hr after administration; assay type: ADME, cell-free; details: po, read-out: Plasma level
[28] = Pharmacokinetic parameter bioavailability in dog was reported after oral administration of 30 mg/Kg measured on free base; details: in vivo
[29] = solubility was determined using free base at pH 7.4; assay type: physicochemical; details: buffer

Sequence of Vascular endothelial growth factor receptor 2 (P35968 whole entry): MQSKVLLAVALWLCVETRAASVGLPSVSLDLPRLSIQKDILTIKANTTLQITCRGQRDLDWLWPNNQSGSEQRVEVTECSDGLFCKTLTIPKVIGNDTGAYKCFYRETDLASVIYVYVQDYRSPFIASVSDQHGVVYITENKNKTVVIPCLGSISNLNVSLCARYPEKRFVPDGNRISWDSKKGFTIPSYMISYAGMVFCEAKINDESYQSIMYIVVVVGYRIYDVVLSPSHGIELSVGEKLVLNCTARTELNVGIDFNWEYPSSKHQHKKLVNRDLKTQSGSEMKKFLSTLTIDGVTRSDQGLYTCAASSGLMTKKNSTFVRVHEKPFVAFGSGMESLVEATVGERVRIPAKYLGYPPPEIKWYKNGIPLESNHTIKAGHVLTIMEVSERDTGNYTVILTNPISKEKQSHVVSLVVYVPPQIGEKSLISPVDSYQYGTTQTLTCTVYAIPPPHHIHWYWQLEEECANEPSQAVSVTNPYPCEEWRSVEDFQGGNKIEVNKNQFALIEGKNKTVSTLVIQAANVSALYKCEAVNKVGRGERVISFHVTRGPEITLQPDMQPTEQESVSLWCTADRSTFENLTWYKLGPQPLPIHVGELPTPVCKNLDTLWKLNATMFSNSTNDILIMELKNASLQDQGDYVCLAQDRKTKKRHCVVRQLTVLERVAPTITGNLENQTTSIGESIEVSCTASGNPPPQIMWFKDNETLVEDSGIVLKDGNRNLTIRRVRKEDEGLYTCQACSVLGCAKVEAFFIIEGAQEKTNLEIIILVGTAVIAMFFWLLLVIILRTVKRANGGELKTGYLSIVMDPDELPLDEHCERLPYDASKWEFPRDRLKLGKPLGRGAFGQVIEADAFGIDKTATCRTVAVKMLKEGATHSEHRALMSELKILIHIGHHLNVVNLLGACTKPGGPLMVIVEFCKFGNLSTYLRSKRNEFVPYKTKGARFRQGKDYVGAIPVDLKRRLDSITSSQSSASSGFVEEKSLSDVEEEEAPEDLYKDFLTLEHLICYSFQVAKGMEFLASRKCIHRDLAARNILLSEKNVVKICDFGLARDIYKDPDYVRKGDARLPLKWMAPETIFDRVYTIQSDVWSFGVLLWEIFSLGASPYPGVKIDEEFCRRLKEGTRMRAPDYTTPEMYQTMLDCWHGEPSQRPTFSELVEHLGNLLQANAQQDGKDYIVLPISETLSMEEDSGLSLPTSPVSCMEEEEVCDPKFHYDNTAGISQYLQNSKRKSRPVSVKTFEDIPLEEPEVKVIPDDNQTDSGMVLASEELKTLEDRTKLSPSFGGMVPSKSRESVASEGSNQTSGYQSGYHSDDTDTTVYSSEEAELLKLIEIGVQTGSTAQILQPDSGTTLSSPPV
Sequence of Epidermal growth factor receptor (P00533 whole entry): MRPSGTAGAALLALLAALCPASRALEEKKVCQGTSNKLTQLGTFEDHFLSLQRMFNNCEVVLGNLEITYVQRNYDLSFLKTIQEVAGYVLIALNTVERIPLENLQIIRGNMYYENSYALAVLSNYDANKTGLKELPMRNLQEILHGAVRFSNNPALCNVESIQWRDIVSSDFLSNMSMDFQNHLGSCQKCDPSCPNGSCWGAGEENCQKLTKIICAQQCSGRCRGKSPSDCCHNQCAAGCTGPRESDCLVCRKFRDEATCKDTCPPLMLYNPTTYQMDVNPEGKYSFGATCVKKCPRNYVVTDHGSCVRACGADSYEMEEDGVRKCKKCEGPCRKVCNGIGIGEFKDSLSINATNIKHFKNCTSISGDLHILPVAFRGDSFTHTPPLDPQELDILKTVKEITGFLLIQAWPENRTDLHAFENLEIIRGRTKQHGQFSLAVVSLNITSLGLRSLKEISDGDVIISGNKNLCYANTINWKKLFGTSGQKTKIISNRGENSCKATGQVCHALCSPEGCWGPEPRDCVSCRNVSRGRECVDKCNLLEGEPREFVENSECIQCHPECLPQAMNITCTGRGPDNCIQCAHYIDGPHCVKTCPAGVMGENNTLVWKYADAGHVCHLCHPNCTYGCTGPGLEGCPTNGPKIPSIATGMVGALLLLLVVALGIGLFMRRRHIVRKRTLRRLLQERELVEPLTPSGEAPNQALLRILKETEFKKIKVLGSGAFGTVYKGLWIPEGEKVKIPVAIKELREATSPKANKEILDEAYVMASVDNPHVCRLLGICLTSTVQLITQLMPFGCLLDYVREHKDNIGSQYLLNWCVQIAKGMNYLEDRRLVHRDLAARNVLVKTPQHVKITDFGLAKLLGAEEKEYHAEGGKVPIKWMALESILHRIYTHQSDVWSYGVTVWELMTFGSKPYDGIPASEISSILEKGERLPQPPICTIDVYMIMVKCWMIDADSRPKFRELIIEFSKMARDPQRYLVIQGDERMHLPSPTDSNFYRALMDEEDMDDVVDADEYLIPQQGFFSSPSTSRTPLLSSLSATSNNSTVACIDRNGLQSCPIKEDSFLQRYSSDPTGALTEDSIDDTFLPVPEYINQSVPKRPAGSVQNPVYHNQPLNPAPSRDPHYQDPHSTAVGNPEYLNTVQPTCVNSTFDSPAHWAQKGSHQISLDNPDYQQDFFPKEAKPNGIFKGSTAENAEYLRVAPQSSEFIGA
Sequence of Vascular endothelial growth factor receptor 1 (P17948 whole entry): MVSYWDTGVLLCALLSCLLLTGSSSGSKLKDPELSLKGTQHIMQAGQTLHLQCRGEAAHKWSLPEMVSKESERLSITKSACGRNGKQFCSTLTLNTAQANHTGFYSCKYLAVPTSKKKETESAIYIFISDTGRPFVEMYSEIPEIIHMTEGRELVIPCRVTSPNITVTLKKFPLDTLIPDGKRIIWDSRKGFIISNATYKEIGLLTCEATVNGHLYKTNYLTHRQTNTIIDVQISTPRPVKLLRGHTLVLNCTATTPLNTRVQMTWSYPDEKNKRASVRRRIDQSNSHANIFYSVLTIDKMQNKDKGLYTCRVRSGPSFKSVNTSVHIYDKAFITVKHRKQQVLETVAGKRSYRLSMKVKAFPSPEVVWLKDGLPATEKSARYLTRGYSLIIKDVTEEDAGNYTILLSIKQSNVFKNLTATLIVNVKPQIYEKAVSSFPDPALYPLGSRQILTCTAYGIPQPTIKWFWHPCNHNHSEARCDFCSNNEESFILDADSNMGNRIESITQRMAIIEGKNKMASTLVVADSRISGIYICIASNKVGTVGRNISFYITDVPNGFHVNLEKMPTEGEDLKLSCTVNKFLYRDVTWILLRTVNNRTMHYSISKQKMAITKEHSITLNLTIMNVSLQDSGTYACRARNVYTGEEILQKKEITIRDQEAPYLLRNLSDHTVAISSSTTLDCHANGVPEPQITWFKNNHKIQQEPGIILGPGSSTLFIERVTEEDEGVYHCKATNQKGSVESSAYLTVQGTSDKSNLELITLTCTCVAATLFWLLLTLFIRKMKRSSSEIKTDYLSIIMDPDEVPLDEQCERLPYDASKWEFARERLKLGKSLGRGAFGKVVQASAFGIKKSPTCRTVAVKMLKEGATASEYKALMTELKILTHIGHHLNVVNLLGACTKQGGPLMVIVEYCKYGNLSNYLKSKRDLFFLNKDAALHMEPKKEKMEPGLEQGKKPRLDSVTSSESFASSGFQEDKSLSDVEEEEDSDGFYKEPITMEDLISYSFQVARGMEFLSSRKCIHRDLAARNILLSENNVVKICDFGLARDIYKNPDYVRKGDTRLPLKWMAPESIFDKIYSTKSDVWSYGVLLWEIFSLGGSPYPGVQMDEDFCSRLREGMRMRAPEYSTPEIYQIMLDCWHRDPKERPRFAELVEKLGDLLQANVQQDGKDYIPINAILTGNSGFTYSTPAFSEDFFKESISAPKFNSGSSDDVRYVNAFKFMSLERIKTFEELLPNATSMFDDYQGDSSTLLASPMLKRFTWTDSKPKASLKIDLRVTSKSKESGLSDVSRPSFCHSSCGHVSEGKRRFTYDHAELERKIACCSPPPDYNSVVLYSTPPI
Sequence of Fibroblast growth factor receptor 1 (P11362 whole entry): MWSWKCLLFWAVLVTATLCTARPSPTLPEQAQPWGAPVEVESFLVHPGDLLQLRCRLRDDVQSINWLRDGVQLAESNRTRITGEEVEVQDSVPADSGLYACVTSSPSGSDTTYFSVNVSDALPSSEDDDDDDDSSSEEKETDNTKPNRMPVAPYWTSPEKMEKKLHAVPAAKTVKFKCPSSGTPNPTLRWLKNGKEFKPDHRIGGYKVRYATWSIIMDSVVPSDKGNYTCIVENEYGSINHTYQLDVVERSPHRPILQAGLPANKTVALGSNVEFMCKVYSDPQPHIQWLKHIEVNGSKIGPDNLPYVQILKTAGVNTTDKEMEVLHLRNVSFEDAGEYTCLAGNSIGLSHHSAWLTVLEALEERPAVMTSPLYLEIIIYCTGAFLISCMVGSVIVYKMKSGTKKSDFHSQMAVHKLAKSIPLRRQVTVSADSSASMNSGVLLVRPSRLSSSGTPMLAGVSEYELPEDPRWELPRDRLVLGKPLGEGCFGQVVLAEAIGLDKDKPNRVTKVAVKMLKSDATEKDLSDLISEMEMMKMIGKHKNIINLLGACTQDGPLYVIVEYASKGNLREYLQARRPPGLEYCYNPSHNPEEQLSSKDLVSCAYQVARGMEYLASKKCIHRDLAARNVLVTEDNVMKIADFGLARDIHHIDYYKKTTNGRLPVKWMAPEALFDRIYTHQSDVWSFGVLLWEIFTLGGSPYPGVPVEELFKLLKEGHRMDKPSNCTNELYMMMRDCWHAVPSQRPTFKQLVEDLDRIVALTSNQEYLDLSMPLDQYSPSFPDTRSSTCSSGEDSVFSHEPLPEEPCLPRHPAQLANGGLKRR

Structure (SMILES)	IC50 [1] [nM]	IC50 (HUVEC) [nM]	IC50 [2] [nM]	IC50 [3] [nM]	IC50 [4] [nM]	IC50 [5] [nM]	other results
COc1cc2c(Nc3ccc(Cl)cc3F)ncnc2cc1OCCN1CCN(C)CC1	8000	10000	200	30	300	100	
COc1cc2c(Nc3ccc(C)cc3F)ncnc2cc1OCC1CCNCC1	12300	> 5000	500	30	700	250	
COCCOc1cc2ncnc(Nc3ccc(Cl)cc3F)c2cc1OC		5000	100			40	concentration at 24 h [6]: < 100 nM; concentration at 6 h [7]: 12000 nM
COc1cc2c(Nc3ccc(Cl)cc3F)ncnc2cc1OCCCN1CCN(C)CC1.Cl	2100	5000	75	20	600	50	solubility [8]: 60 µM; concentration at 6 h [9]: 5000 nM; pKa [10]: 7.9; logD (physchem [11]): 2.4; concentration at 24 h [12]: 3000 nM
COc1cc2c(Nc3ccc(Cl)cc3F)ncnc2cc1OC[C@@H]1CCCN(C)C1	1800	5000	100	5	700	80	
COc1cc2c(Nc3ccc(C#N)cc3F)ncnc2cc1OC/C=C/CN1CCCC1	19000	10000	800	230	3900	500	
COc1cc2c(Nc3ccc(Cl)cc3F)ncnc2cc1OCCCN1CCOCC1		2000					solubility [8]: 20 µM (≈ 8.94 µg/mL); concentration at 24 h [6]: 800 nM; pKa (physchem [13]): 7.2; logD (physchem [11]): 3.4; concentration at 6 h [7]: 4000 nM
COc1cc2c(Nc3ccc(Cl)cc3F)ncnc2cc1OCCCN1CCCC1.Cl	4200	5000		30	200	8	
COc1cc2c(Nc3cc(O)c(C)cc3F)ncnc2cc1OCC1CCN(C)CC1.Cl	1500	800	300	7	25	30	
COc1cc2c(Nc3ccc(C)cc3F)ncnc2cc1OCC1CCN(C)CC1	13500	> 5000	1000	25	500	65	
COc1cc2c(Nc3c(F)cc(Br)cc3F)ncnc2cc1OCC1CCNCC1	1900	3000	450	15	800	70	
COc1cc2c(Nc3ccc(Cl)cc3F)ncnc2cc1OCCC1CCN(C)CC1	4100	3000	300	55	500	70	
COc1cc2c(Nc3ccc(Cl)cc3F)ncnc2cc1OC1CCN(C)CC1	50000				1500		
COc1cc2c(Nc3ccc(Cl)cc3F)ncnc2cc1OCC1CCN(C)CC1.Cl	4300	5000		15	2000	50	
COc1cc2c(Nc3cc(O)c(Cl)cc3F)ncnc2cc1OCC1CCN(C)CC1.Cl	900	500	100	8	20	3	
COc1cc2c(Nc3ccc(Cl)cc3F)ncnc2cc1OCC1CCNCC1.Cl	5000	5000	300	50	1000	60	
COc1cc2c(Nc3ccc(Br)cc3F)ncnc2cc1OC[C@H]1CCCN(C)C1	5000	1000		10	500	40	
COc1cc2c(Nc3ccc(Cl)cc3F)ncnc2cc1OCCN1CCOCC1		5000	400			300	concentration at 24 h [6]: 500 nM; concentration at 6 h [7]: 12000 nM
COc1cc2c(Nc3ccc(Br)cc3F)ncnc2cc1OCCC1CCNCC1	2700	3000		40			
COc1cc2c(Nc3ccc(Br)cc3F)ncnc2cc1OCCCN1CCN(C)CC1.Cl	2000	> 1000	100	9	550	30	
COc1cc2c(Nc3ccc(Br)cc3F)ncnc2cc1OC[C@@H]1CCCN(C)C1	1800	10000		1	500	60	concentration at 6 h [9]: 5500 nM; concentration at 24 h [12]: 2500 nM
COc1cc2c(Nc3ccc(Br)cc3F)ncnc2cc1OC/C=C/CN1CCCC1.Cl	2100	5000	100	8	650	30	
COc1cc2c(Nc3ccc(Cl)cc3F)ncnc2cc1OCCN(C)c1ccncc1		5000	300			200	concentration at 24 h [6]: 2000 nM; concentration at 6 h [7]: 4600 nM
COc1cc2c(Nc3ccc(Br)cc3F)ncnc2cc1OCCC1CCN(C)CC1	2100	3000		6			concentration at 6 h [9]: 3000 nM; concentration at 24 h [12]: 2000 nM
COc1cc2c(Nc3ccc(Cl)cc3F)ncnc2cc1OC/C=C/CN1CCCC1.Cl	1900	1000	90	40	750	40	
COc1cc2c(Nc3c(F)cc(Br)cc3F)ncnc2cc1OCC1CCN(C)CC1	1500	> 1000	300	10	500	100	
COc1cc2c(Nc3c(F)cc(Cl)cc3F)ncnc2cc1OCC1CCNCC1	2500	> 1000	500	40	450	100	
COc1cc2/c(=N/c3ccc(Br)cc3F)nc[nH]c2cc1OCC1CCN(C)CC1							SPB (Rattus norvegicus): 90%; SPB (Mus musculus): 96%
COc1cc2c(Nc3c(F)cc(Cl)cc3F)ncnc2cc1OCC1CCN(C)CC1	1700	> 5000		25			
COc1cc2c(Nc3ccc(Br)cc3F)ncnc2cc1OCCn1ccnn1 [ZD-4190 FREE BASE]							half-life [14]: 1.3 h; IC50 [15]: > 10000 nM; IC50 [16]: > 10000 nM; concentration at 6 h [9]: 14000 nM; fraction unbound [17]: 0.02; half-life [18]: 1.1 h; bioavailability [19]: > 80%; IC50 [20]: > 20000 nM; IC50 (Angiopoietin-1 receptor): > 100000 nM; IC50 [21]: > 100000 nM; IC50 [22]: > 20000 nM; logD (physchem [11]): 4.6; fraction unbound [23]: 0.05; pKa [24]: 5.3; IC50 [25]: > 20000 nM; CL/F [26]: 8.33 mL/min/kg; concentration at 24 h [27]: 200 nM; bioavailability [28]: < 5%; solubility [29]: 0.7 µM (≈ 0.321 µg/mL)
